Biological target: Synaptic vesicular amine transporter (Rattus norvegicus, UniProt Q01827)
Test: Inhibition of VMAT2-mediated [3H]-dopamine uptake in rat striata isolated synaptic vesicles by liquid scintillation spectroscopy

Synaptic vesicular amine transporter, sequence (Q01827 whole entry): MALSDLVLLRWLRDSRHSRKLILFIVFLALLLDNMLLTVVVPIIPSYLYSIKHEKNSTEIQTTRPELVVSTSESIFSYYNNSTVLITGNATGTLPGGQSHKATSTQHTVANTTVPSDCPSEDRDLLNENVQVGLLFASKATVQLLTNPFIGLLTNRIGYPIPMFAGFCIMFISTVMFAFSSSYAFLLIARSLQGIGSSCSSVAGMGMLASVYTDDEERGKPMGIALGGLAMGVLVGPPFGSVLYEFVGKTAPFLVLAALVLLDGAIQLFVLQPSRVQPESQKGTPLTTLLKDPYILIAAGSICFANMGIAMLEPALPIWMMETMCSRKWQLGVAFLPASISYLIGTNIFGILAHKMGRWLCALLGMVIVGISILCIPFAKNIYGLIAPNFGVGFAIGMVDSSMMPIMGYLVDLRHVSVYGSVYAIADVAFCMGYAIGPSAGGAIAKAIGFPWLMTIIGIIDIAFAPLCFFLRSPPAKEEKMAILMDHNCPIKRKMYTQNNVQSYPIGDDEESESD

Compared with `COc1ccc(CC[C@@H]2C[C@@H](CCc3ccc(OC)cc3)N2)cc1` (racemic), `COc1ccc(CC[C@@H]2C[C@H](CCc3ccc(OC)cc3)N2)cc1` is 2.8-fold lower in Ki: 66 nM for the first, 24 nM for the second.

`c1ccc(CC[C@@H]2C[C@H](CCc3ccccc3)N2)cc1` and `c1ccc(CC[C@@H]2C[C@@H](CCc3ccccc3)N2)cc1` (racemic) are within 1.5-fold of each other in Ki: 62 nM for the first, 48 nM for the second.

`c1ccc(CC[C@H]2CCC[C@@H](CCc3ccccc3)N2)cc1` and `c1cc2c(cc1CC[C@@H]1C[C@@H](CCc3ccc4c(c3)OCO4)N1)OCO2` (racemic) are within 1.5-fold of each other in Ki: 43 nM for the first, 31 nM for the second.

With `c1cc2c(cc1CC[C@@H]1C[C@H](CCc3ccc4c(c3)OCO4)N1)OCO2` the Ki was 55 nM.

Source: ChEMBL document CHEMBL2440070, “Synthesis and evaluation of novel azetidine analogs as potent inhibitors of vesicular [3H]dopamine uptake” (Bioorg Med Chem, 2013)
